Measured values: paper PMC4754833, “Rilpivirine analogs potently inhibit drug-resistant HIV-1 mutants” (Retrovirology, 2016)

Assays:
HIV-1 RT mutant P236L = experiment: single round infection assay, P236L; type: cell-based; settings: for IC50: Human immunodeficiency virus 1
Experimental: (§1) The human osteosarcoma cell line, HOS, was obtained from Dr. Richard Schwartz (Michigan State University, East Lansing, MI) and grown in Dulbecco’s modified Eagle’s medium (Invitrogen, Carlsbad, CA) supplemented with 5 % (v/v) fetal bovine serum, 5 % newborn calf serum, and penicillin (50 units/ml) plus streptomycin (50 µg/ml; Quality Biological, Gaithersburg, MD). Virion production and single-round infectivity assays were used to determine antiviral activity (IC50 values) of the compounds as previously described.
(§2) pNLNgoMIVR-ΔEnv.LUC has been described previously. The RT open reading frame was removed from pNLNgoMIVR-ΔEnv.LUC (digestion with SpeI and SalI) and inserted between the SpeI and SalI sites of pBluescript II KS+. Using that construct as the wild-type template, we prepared the following HIV-1 RT mutants using the QuikChange II XL (Stratagene, La Jolla, CA) site-directed mutagenesis protocol kit: L100I, K103N, Y181C, Y188L, H221Y, K103N/Y181C, G190A, G190S, M230L, P236L, L100I/K103N, K103N/P225H, V106A/G190A/F227L, V106A, L234I, V106A/F227L, V106A/L234I, V106A/F227L/L234I, E40K, D67E, K101E, V111A, E138K, M184I, M184V, K101E/M184I, K101E/M184V, E138K/M184I, E138K/M184V, K101P, Y181I, and K101P/V179I. The following sense oligonucleotides were used with matching cognate antisense oligonucleotides (not shown) (Integrated DNA Technologies, Coralville, IA) in the mutagenesis: L100I, 5′-[…]-3′; L100I 2-103, 5′-[…]-3′; K103N, 5′-[…]-3′; Y181C, 5′-[…]-3′; Y188L, 5′-[…]-3′; H221Y, 5′-[…]-3′; G190A, 5′-[…]-3′; G190S, 5′-[…]-3′; P225H, 5′-[…]-3′; F227, 5′-[…]-3′; M230L, 5′-[…]-3′; P236L, 5′-[…]-3′; V106A, 5′-[…]-3′; L234I, 5′-[…]-3′; E40K, 5′-[…]-3′; D67E, 5′-[…]-3′; K101E, 5′-[…]-3′; V111A, 5′-[…]-3′; E138K, 5′-[…]-3′; M184I, 5′-[…]-3′; M184V, 5′-[…]-3′; K101P, 5′-[…]-3′; Y181I, 5′-[…]-3′; K101P/V179I, 5′-[…]-3′. The double mutants K103N/Y181C, K103N/P225H, and L100I/K103N were made using the previously generated K103N mutant and the appropriate oligonucleotides to add the second mutation, Y181C, P225, and L100I respectively. The double mutants V106A/F227L and V106A/L234I were prepared using the previously generated V106A mutant and the appropriate oligonucleotides to add the second mutation, F227L and L234I, respectively. The double mutants K101E/M184I and K101E/M184V were constructed using the previously generated K101E mutant and the appropriate oligonucleotides to add the second mutation, M184I and M184V, respectively. The double mutants E138K/M184I and E138K/M184V were constructed using the previously generated E138K mutant and the appropriate oligonucleotides for the second mutation, M184I and M184V, respectively. The triple mutant V106A/F227L/L234I was made using the previously generated V106A/F227L double mutant and the appropriate oligonucleotides for the third mutation, L234I. The triple mutant V106A/G190A/F227L was constructed in a series of steps using the previously generated V106A mutant and the appropriate oligonucleotides for the second mutation, G190A, to generate the double mutant V106A/G190A, and then the triple mutant was made using double mutant V106A/G190A and oligonucleotides for the third mutation, F227L. The DNA sequence of each construct was verified by DNA sequence determination. The sequences encoding the mutant RTs were then subcloned into pNLNgoMIVR-ΔEnv.LUC (between the KpnI and SalI sites) to produce the mutant HIV-1 constructs. These DNA sequences were also checked independently by DNA sequence determination.
(§3) 10.1186/s12977-016-0244-2 The IC50 values (nM) of RPV and the RPV analogs were determined against the NNRTI resistant mutants were measured by using a single round infection assay, n = 4. The concentrations (nM) are measured by reductions in luciferase reporter activity followed by the standard deviations. […]

[1] = system: HIV-1 RT mutant L100I/K103N; experiment: single round infection assay, L100I/K103N; type: cell-based; settings: for fold-change of IC50 of the mutant relative to WT: L100I/K103N vs WT; for IC50: ± SD, n=4, limit of detection 100 nM
Experimental: as §1, §2, §3

[2] = system: HIV-1 RT mutant K103N/P225H; experiment: single round infection assay, K103N/P225H; type: cell-based; settings: for IC50: Human immunodeficiency virus 1; for fold-change of IC50 of the mutant relative to WT: K103N/P225H vs WT
Experimental: as §1, §2, §3

[3] = system: HIV-1 RT mutant V106A/G190A/F227L; experiment: single round infection assay, V106A/G190A/F227L; type: cell-based; settings: for IC50: Human immunodeficiency virus 1; for fold-change of IC50 of the mutant relative to WT: V106A/G190A/F227L vs WT
Experimental: as §1, §2, §3

[4] = system: HIV-1 RT mutant V106A/F227L/L234I; experiment: single round infection assay, V106A/F227L/L234I; type: cell-based; settings: V106A/F227L/L234I vs WT
Experimental: as §1, §2, §3

HIV-1 RT mutant E40K = experiment: single round infection assay, E40K; type: cell-based
Experimental: as §1, §2, §3

HIV-1 RT mutant D67E = experiment: single round infection assay, D67E; type: cell-based; settings: for fold-change of IC50 of the mutant relative to WT: D67E vs WT; for IC50: ± SD, n=4
Experimental: as §1, §2, §3

HIV-1 RT mutant K101E = experiment: single round infection assay, K101E; type: cell-based; settings: for IC50: ± SD, n=4; for fold-change of IC50 of the mutant relative to WT: K101E vs WT
Experimental: as §1, §2, §3

[5] = system: HIV-1 RT mutant K101P/V179I; experiment: single round infection assay, K101P/V179I; type: cell-based; settings: for IC50: Human immunodeficiency virus 1; for fold-change of IC50 of the mutant relative to WT: K101P/V179I vs WT
Experimental: as §1, §2, §3

HIV-1 RT mutant L100I = system: HIV-1 RT mutant L100I; design: method as in PMID 23217210; settings: previous study; cited from earlier work
HIV-1 RT mutant H221Y = system: HIV-1 RT mutant H221Y; design: method as in PMID 23217210; settings: previous study; cited from earlier work
HIV-1 RT mutant V106A = experiment: single round infection assay, V106A; type: cell-based
Experimental: as §1, §2, §3

[6] = Human immunodeficiency virus 1, D67E
[7] = Human immunodeficiency virus 1, K101E
[8] = Human immunodeficiency virus 1, L100I/K103N

Structure (SMILES)	IC50 (HIV-1 RT mutant P236L) [nM]	fold-change of IC50 of the mutant relative to WT [1]	IC50 [2] [nM]	fold-change of IC50 of the mutant relative to WT [2]	IC50 [3] [nM]	fold-change of IC50 of the mutant relative to WT [3]	fold-change of IC50 of the mutant relative to WT [4]	fold-change of IC50 of the mutant relative to WT (HIV-1 RT mutant D67E)	IC50 (HIV-1 RT mutant D67E; [6]) [nM]	IC50 (HIV-1 RT mutant K101E; [7]) [nM]	fold-change of IC50 of the mutant relative to WT (HIV-1 RT mutant K101E)	IC50 (HIV-1 RT mutant K101E; K101E) [nM]	IC50 [5] [nM]	fold-change of IC50 of the mutant relative to WT [5]	IC50 (HIV-1 RT mutant L100I) [nM]	IC50 (HIV-1 RT mutant H221Y) [nM]	IC50 [1, 8] [nM]	also measured
Cc1cc(/C=C/C#N)cc(C)c1Nc1nc(Nc2ccc(C#N)cc2)ncc1[N+](=O)[O-] [compound 6]	0.23 ± 0.06	4	0.8 ± 0.06	< 2	1.1 ± 0.2	2	2	3	< 2.5	< 2.5	5	2.6 ± 0.96	12.6	25	< 7	< 7	–	fold-change of IC50 of the mutant relative to WT (HIV-1 RT mutant E40K; E40K vs WT): 2; IC50 (HIV-1 RT mutant D67E; D67E): 1.7 ± 0.14 nM
Cc1cc(/C=C/C#N)cc(C)c1Nc1nc(Nc2ccc(C#N)cc2)ncc1N [compound 7]	0.22 ± 0.06	2	1.1 ± 0.25	< 2	1.4 ± 0.4	< 2	–	6	4.5 ± 1.1	< 2.5	3	2.3 ± 1.2	81.4 ± 8.1	104	< 7	< 7	–	–
Cc1cc(/C=C/C#N)cc(C)c1Nc1ncc([N+](=O)[O-])c(Nc2ccc(C#N)cc2)n1 [compound 8]	0.61 ± 0.07	3	1.2 ± 0.33	–	2.8 ± 0.42	< 2	< 2	8	12.7	10.1	6	–	29.8 ± 5.4	19	< 7	< 7	< 5.4	IC50 ([1]; L100I/K103N): 5.4 ± 0.35 nM
Cc1cc(/C=C/C#N)cc(C)c1Nc1nc(Nc2ccc(C#N)cc2)c2nc[nH]c2n1 [compound 13]	0.31 ± 0.02	2	0.3 ± 0.09	< 2	0.5 ± 0.2	< 2	–	6	< 2.5	–	4	–	> 100	–	< 7	< 7	–	fold-change of IC50 of the mutant relative to WT (HIV-1 RT mutant P236L; P236L vs WT): < 2; IC50 (HIV-1 RT mutant D67E; D67E): 1.6 ± 0.4 nM
Cc1cc(/C=C/C#N)cc(C)c1Nc1nc(Nc2ccc(C(F)(F)F)cc2)c2nc[nH]c2n1 [compound 15]	0.9 ± 0.08	9	1.5 ± 0.31	–	2.6 ± 0.17	< 2	–	8	13.1	< 6	4	6.2 ± 1.2	> 100	–	< 7	< 7	15.5	fold-change of IC50 of the mutant relative to WT (HIV-1 RT mutant V106A; V106A vs WT): < 2
Cc1cc(/C=C/C#N)cc(C)c1Nc1ncc2ncn(-c3ccc(C#N)cc3)c2n1 [compound 26]	2.91	–	12.9	< 2	46.2 ± 11.1	6	5	8	62.3 ± 1.3	56.1 ± 4.1	7	–	> 100	–	–	–	> 100	IC50 (HIV-1 RT mutant V106A; Human immunodeficiency virus 1, V106A (selected by DOR), ± SD, n=4): 4.9 ± 1.3 nM; IC50 (HIV-1 RT mutant E40K; Human immunodeficiency virus 1, E40K, ± SD, n=4): 4.2 ± 0.8 nM
Cc1cc(/C=C/C#N)cc(C)c1-n1cnc2cnc(Nc3ccc(C#N)cc3)nc21 [compound 27]	0.2 ± 0.04	69	2.1 ± 0.93	4	2.2 ± 1.2	4	< 2	2	–	–	2	–	16.6	29	< 7	< 7	39.8	–
